Patent US9005651B2, “Sustained drug delivery system” (Tohoku University, priority 2009, dated 2015)

Legend:
[1] = Low molecular weight drug (FA) slow release from PEGDM:TEGDM sheets; type: physicochemical; details: PEGDM:TEGDM 100:0 to 0:100, capsules in PBS
Procedure: Sheets having changed mixing ratios of PEGDM (Mn 750) and TEGDM (Mw 286.3) were prepared to evaluate their low molecular weight drug slow-releasing capability. The low molecular weight drug used sodium fluorescein (FA, a fluorescent contrast agent clinically used) as a model. PEG sheets were prepared in the 6 patterns of PEGDM:TEGDM=100:0, 95:5, 90:10, 80:20, 50:50, and 0:100; FA was capsulated; and the capsules were immersed in PBS to measure the fluorescence intensity at regular intervals. […] The slow-releasing capability was irrespective of the presence of collagen particles.

[2] = Implantation of capsule on the sclera of rabbit's eye (fluorescence of hydatoid, fundus camera, tissue); type: in vivo; details: 3 days after implantation
Procedure: A capsule (the collagen particle concentration of its porous PEG sheet: 500 mg/ml) packed with a PEG pellet of FA was implanted on the sclera of the eye of rabbits. One eye of each rabbit was used as a non-implantation control. The conjunctiva was incised 5 mm and the capsule was implanted therethrough into 2 to 15 mm of the corneal limbus. The capsule was fixed by suture. The conjunctiva was finally sutured to terminate the implantation. The hydatoid (100 μl) was collected every other week and the fluorescence intensity thereof was measured using a fluorescence plate reader. Using a fluorescence camera, the fluorochrome in the device implanted on the sclera and the distribution of the pigment slowly released were photographed. […] In FIG. 22, the fluorescences of the cell nucleus (blue fluorescence) and the model drug (green fluorescence) are observed. In FIG. 22, the mark * represents the position in which the PEG capsule was present. […] When the drug passes through RP, the drug is fed to RE. Because RP has a high barrier function, the pigment stops here and is concentrated.

O=C([O-])c1ccccc1-c1c2ccc(=O)cc-2oc2cc([O-])ccc12.[Na+].[Na+] [FA, sodium fluorescein]
FA slow-releasing capability versus PEGDM:TEGDM ratio [1]: increased mixing ratio of TEGDM suppressed the FA slow-releasing capability | tissue fluorescence distribution [2]: strong fluorescence was observed in the sclera (SC) and the subretina (RP)
